Source: article PMC10363510 (Plant Communications, 2023)

System: SiAT1
Assay: HPLC product assay, Michaelis-Menten fit
Format: biochemical, Sesamum indicum
Conditions: read-out: apparent Km; 75 mM salidroside, 50 mM Tris-HCl pH 7.4, 30°C

SMILES	Km
CC(C)(COP(=O)(O)OP(=O)(O)OC[C@H]1O[C@@H](n2cnc3c(N)ncnc32)[C@H](O)[C@@H]1OP(=O)(O)O)[C@@H](O)C(=O)NCCC(=O)NCCSC(=O)/C=C/c1ccc(O)c(O)c1 [caffeoyl-CoA]	1.13 ± 0.42 µM
CC(C)(COP(=O)(O)OP(=O)(O)OC[C@H]1O[C@@H](n2cnc3c(N)ncnc32)[C@H](O)[C@@H]1OP(=O)(O)O)[C@@H](O)C(=O)NCCC(=O)NCCSC(=O)/C=C/c1ccc(O)cc1 [p-coumaroyl-CoA]	1.66 ± 0.39 µM
